Columns and labels:
Format in all cases: in vivo
Potato = experiment: Crop yield of treated potato tubers; details: potato tubers treated at 500 g per 100 kg seed; harvested at maturity; vs untreated tubers
Method: Potato tubers are treated with the composition of the invention containing Imidacloprid, at a rate of 500 g Imidacloprid per 100 kg seed and are planted following procedures which correspond to conditions found in practice. The crop is harvested from the field at maturity. Untreated tubers from the same origin are used for comparison purposes.

[1] = test system: Rice (Orvza sativa L. cv. Nihonbare); experiment: Vigor of rice after drench treatment
Method: (§1) Plant are grown in a commercially available pathogen-free soil mixture. 2 weeks (eggplants 3 weeks) after planting seedlings are transplanted into 600 ml pots and drench treated with 10 mg Thiamethoxam in 20 ml water per pot. They were fertilised once or twice a week. Up to 10 weeks after treatment, fresh- and dry-weight of shoots and roots and numbers of leaves are determined. Protein content is measured by the method of Bradford (1976, Anal. Biochem., 72, 248-254) with BSA (bovine serum albumin) as standard: Homogenisation of leaf material in liquid N2 in a mortar. Extraction in phosphate buffer (pH 7.5, 0.1M, 2/1 vol/weight). After centrifugation supematant is separated from pellet and stored at −20° C. until protein determination. For comparison of treated and check, mg proteing/g fresh weight is calculated.
(§2) Tables B2 and B3: Differences between treated plants and Check given as factors (e.g. fresh weight of treated/Fresh weight of check). Factors >1 indicate an enhancement of vigor of treated plants. FW: fresh weight; DW: dry weight; Protein ((mg/g treated plant)/(mg/g check))

[2] = test system: Eggplant (Solanum melongena L. cv. Marfa); experiment: Vigor of eggplant after drench treatment
Method: as §1, §2

Canola = experiment: Emergence of canola from treated seed; details: seed treatment 300 g per 100 kg seed; vs untreated seeds
Method: Canola seed is treated with the composition of the invention containing Thiamethoxam, at a rate of 300 g Thiamethoxam per 100 kg seed, and is seeded following procedures which correspond to conditions found in practice. Untreated seeds from the same origin are used for comparison purposes. Emergence (plants per meter) is evaluated. In the case of treated seeds, about 20% more plants per meter emerge that in the case of untreated plants.

In the case of `O=[N+]([O-])NC1=NCCN1Cc1ccc(Cl)nc1` [Imidacloprid], the Crop yield (Potato) was “significantly higher”.
With `CN1COCN(Cc2cnc(Cl)s2)/C1=N\[N+](=O)[O-]` [Thiamethoxam] the “Protein ((mg/g treated plant)/(mg/g check))” value (“Protein” below) ([1]; week 1, drench 10 mg per pot) was 1.1, the “Root DW (factor treated/check)” value ([1]; week 1, drench 10 mg per pot) was 0.8 and the “Root FW (factor treated/check)” value ([1]; week 1, drench 10 mg per pot) was 1.0. For the same molecule, the “Shoot DW (factor treated/check)” value ([1]; week 1, drench 10 mg per pot) was 1.0, the “Shoot FW (factor treated/check)” value ([1]; week 1, drench 10 mg per pot) was 1.0 and the “Size (factor treated/check)” value ([1]; week 1, drench 10 mg per pot) was 1.0. The “Protein” value ([1]; week 2, drench 10 mg per pot) was 1.0, the “Root DW (factor treated/check)” value ([1]; week 2, drench 10 mg per pot) was 1.1 and the “Root FW (factor treated/check)” value ([1]; week 2, drench 10 mg per pot) was 0.8. The “Shoot DW (factor treated/check)” value ([1]; week 2, drench 10 mg per pot) was 1.1, the “Shoot FW (factor treated/check)” value ([1]; week 2, drench 10 mg per pot) was 1.0 and the “Size (factor treated/check)” value ([1]; week 2, drench 10 mg per pot) was 1.0. The “Protein” value ([1]; week 3, drench 10 mg per pot) was 1.0, the “Root DW (factor treated/check)” value ([1]; week 3, drench 10 mg per pot) was 1.3 and the “Root FW (factor treated/check)” value ([1]; week 3, drench 10 mg per pot) was 0.6. The “Shoot DW (factor treated/check)” value ([1]; week 3, drench 10 mg per pot) was 1.3, the “Shoot FW (factor treated/check)” value ([1]; week 3, drench 10 mg per pot) was 1.2 and the “Size (factor treated/check)” value ([1]; week 3, drench 10 mg per pot) was 1.0. For the same molecule, the “Protein” value ([1]; week 4, drench 10 mg per pot) was 1.0, the “Root DW (factor treated/check)” value ([1]; week 4, drench 10 mg per pot) was 1.4 and the “Root FW (factor treated/check)” value ([1]; week 4, drench 10 mg per pot) was 1.5. The “Shoot DW (factor treated/check)” value ([1]; week 4, drench 10 mg per pot) was 1.2, the “Shoot FW (factor treated/check)” value ([1]; week 4, drench 10 mg per pot) was 1.3 and the “Size (factor treated/check)” value ([1]; week 4, drench 10 mg per pot) was 1.1. The “Protein” value ([1]; week 5, drench 10 mg per pot) was 1.0, the “Root DW (factor treated/check)” value ([1]; week 5, drench 10 mg per pot) was 0.9 and the “Root FW (factor treated/check)” value ([1]; week 5, drench 10 mg per pot) was 1.0. The “Shoot DW (factor treated/check)” value ([1]; week 5, drench 10 mg per pot) was 1.1, the “Shoot FW (factor treated/check)” value ([1]; week 5, drench 10 mg per pot) was 1.2 and the “Size (factor treated/check)” value ([1]; week 5, drench 10 mg per pot) was 1.1. The “Protein” value ([1]; week 6, drench 10 mg per pot) was 1.0, the “Root DW (factor treated/check)” value ([1]; week 6, drench 10 mg per pot) was 1.5 and the “Root FW (factor treated/check)” value ([1]; week 6, drench 10 mg per pot) was 1.6. For the same molecule, the “Shoot DW (factor treated/check)” value ([1]; week 6, drench 10 mg per pot) was 1.1, the “Shoot FW (factor treated/check)” value ([1]; week 6, drench 10 mg per pot) was 1.3 and the “Size (factor treated/check)” value ([1]; week 6, drench 10 mg per pot) was 1.2. For the same molecule, the “Protein” value ([1]; week 7, drench 10 mg per pot) was 1.1, the “Root DW (factor treated/check)” value ([1]; week 7, drench 10 mg per pot) was 1.3 and the “Root FW (factor treated/check)” value ([1]; week 7, drench 10 mg per pot) was 1.3. The “Shoot DW (factor treated/check)” value ([1]; week 7, drench 10 mg per pot) was 1.2, the “Shoot FW (factor treated/check)” value ([1]; week 7, drench 10 mg per pot) was 1.3 and the “Size (factor treated/check)” value ([1]; week 7, drench 10 mg per pot) was 1.1. The “Protein” value ([1]; week 8, drench 10 mg per pot) was 1.0, the “Root DW (factor treated/check)” value ([1]; week 8, drench 10 mg per pot) was 1.5 and the “Root FW (factor treated/check)” value ([1]; week 8, drench 10 mg per pot) was 1.8. For the same molecule, the “Shoot DW (factor treated/check)” value ([1]; week 8, drench 10 mg per pot) was 1.4, the “Shoot FW (factor treated/check)” value ([1]; week 8, drench 10 mg per pot) was 1.4 and the “Size (factor treated/check)” value ([1]; week 8, drench 10 mg per pot) was 1.1. The “Protein” value ([1]; week 9, drench 10 mg per pot) was 0.9, the “Root DW (factor treated/check)” value ([1]; week 9, drench 10 mg per pot) was 1.0 and the “Root FW (factor treated/check)” value ([1]; week 9, drench 10 mg per pot) was 1.0. The “Shoot DW (factor treated/check)” value ([1]; week 9, drench 10 mg per pot) was 1.2, the “Shoot FW (factor treated/check)” value ([1]; week 9, drench 10 mg per pot) was 1.2 and the “Size (factor treated/check)” value ([1]; week 9, drench 10 mg per pot) was 1.2. For the same molecule, the “Protein” value ([1]; week 10, drench 10 mg per pot) was 0.7, the “Root DW (factor treated/check)” value ([1]; week 10, drench 10 mg per pot) was 2.0 and the “Root FW (factor treated/check)” value ([1]; week 10, drench 10 mg per pot) was 2.0. For the same molecule, the “Shoot DW (factor treated/check)” value ([1]; week 10, drench 10 mg per pot) was 1.3, the “Shoot FW (factor treated/check)” value ([1]; week 10, drench 10 mg per pot) was 1.3 and the “Size (factor treated/check)” value ([1]; week 10, drench 10 mg per pot) was 1.3. The “Protein” value ([2]; week 1, drench 10 mg per pot) was 1.0, the “Root DW (factor treated/check)” value ([2]; week 1, drench 10 mg per pot) was 1.0 and the “Root FW (factor treated/check)” value ([2]; week 1, drench 10 mg per pot) was 1.0. For the same molecule, the “Shoot DW (factor treated/check)” value ([2]; week 1, drench 10 mg per pot) was 0.9, the “Shoot FW (factor treated/check)” value ([2]; week 1, drench 10 mg per pot) was 0.9 and the “Size (factor treated/check)” value ([2]; week 1, drench 10 mg per pot) was 1.0. The “Protein” value ([2]; week 2, drench 10 mg per pot) was 1.1, the “Root DW (factor treated/check)” value ([2]; week 2, drench 10 mg per pot) was 1.2 and the “Root FW (factor treated/check)” value ([2]; week 2, drench 10 mg per pot) was 1.2. For the same molecule, the “Shoot DW (factor treated/check)” value ([2]; week 2, drench 10 mg per pot) was 1.1, the “Shoot FW (factor treated/check)” value ([2]; week 2, drench 10 mg per pot) was 0.7 and the “Size (factor treated/check)” value ([2]; week 2, drench 10 mg per pot) was 1.1. For the same molecule, the “Protein” value ([2]; week 3, drench 10 mg per pot) was 1.0, the “Root DW (factor treated/check)” value ([2]; week 3, drench 10 mg per pot) was 1.1 and the “Root FW (factor treated/check)” value ([2]; week 3, drench 10 mg per pot) was 1.1. For the same molecule, the “Shoot DW (factor treated/check)” value ([2]; week 3, drench 10 mg per pot) was 1.1, the “Shoot FW (factor treated/check)” value ([2]; week 3, drench 10 mg per pot) was 1.2 and the “Size (factor treated/check)” value ([2]; week 3, drench 10 mg per pot) was 1.1. The “Protein” value ([2]; week 4, drench 10 mg per pot) was 1.6, the “Root DW (factor treated/check)” value ([2]; week 4, drench 10 mg per pot) was 1.0 and the “Root FW (factor treated/check)” value ([2]; week 4, drench 10 mg per pot) was 1.0. For the same molecule, the “Shoot DW (factor treated/check)” value ([2]; week 4, drench 10 mg per pot) was 1.1, the “Shoot FW (factor treated/check)” value ([2]; week 4, drench 10 mg per pot) was 1.1 and the “Size (factor treated/check)” value ([2]; week 4, drench 10 mg per pot) was 1.0. The “Leaf No (factor treated/check)” value ([2]; week 5, drench 10 mg per pot) was 1.1, the “Protein” value ([2]; week 5, drench 10 mg per pot) was 1.0 and the “Root DW (factor treated/check)” value ([2]; week 5, drench 10 mg per pot) was 1.0. For the same molecule, the “Root FW (factor treated/check)” value ([2]; week 5, drench 10 mg per pot) was 0.9, the “Shoot DW (factor treated/check)” value ([2]; week 5, drench 10 mg per pot) was 1.1 and the “Shoot FW (factor treated/check)” value ([2]; week 5, drench 10 mg per pot) was 1.0. For the same molecule, the “Size (factor treated/check)” value ([2]; week 5, drench 10 mg per pot) was 1.0, the “Leaf No (factor treated/check)” value ([2]; week 6, drench 10 mg per pot) was 1.3 and the “Protein” value ([2]; week 6, drench 10 mg per pot) was 1.1. The “Root DW (factor treated/check)” value ([2]; week 6, drench 10 mg per pot) was 0.9, the “Root FW (factor treated/check)” value ([2]; week 6, drench 10 mg per pot) was 0.9 and the “Shoot DW (factor treated/check)” value ([2]; week 6, drench 10 mg per pot) was 1.3. For the same molecule, the “Shoot FW (factor treated/check)” value ([2]; week 6, drench 10 mg per pot) was 1.3, the “Size (factor treated/check)” value ([2]; week 6, drench 10 mg per pot) was 1.3 and the “Leaf No (factor treated/check)” value ([2]; week 7, drench 10 mg per pot) was 1.3. For the same molecule, the “Protein” value ([2]; week 7, drench 10 mg per pot) was 1.4, the “Root DW (factor treated/check)” value ([2]; week 7, drench 10 mg per pot) was 0.7 and the “Root FW (factor treated/check)” value ([2]; week 7, drench 10 mg per pot) was 0.8. For the same molecule, the “Shoot DW (factor treated/check)” value ([2]; week 7, drench 10 mg per pot) was 1.1, the “Shoot FW (factor treated/check)” value ([2]; week 7, drench 10 mg per pot) was 1.1 and the “Size (factor treated/check)” value ([2]; week 7, drench 10 mg per pot) was 1.2. The “Leaf No (factor treated/check)” value ([2]; week 8, drench 10 mg per pot) was 1.2, the “Protein” value ([2]; week 8, drench 10 mg per pot) was 1.4 and the “Root DW (factor treated/check)” value ([2]; week 8, drench 10 mg per pot) was 0.6. For the same molecule, the “Root FW (factor treated/check)” value ([2]; week 8, drench 10 mg per pot) was 0.6, the “Shoot DW (factor treated/check)” value ([2]; week 8, drench 10 mg per pot) was 0.9 and the “Shoot FW (factor treated/check)” value ([2]; week 8, drench 10 mg per pot) was 0.7. The “Size (factor treated/check)” value ([2]; week 8, drench 10 mg per pot) was 1.2, the “Leaf No (factor treated/check)” value ([2]; week 9, drench 10 mg per pot) was 1.6 and the “Protein” value ([2]; week 9, drench 10 mg per pot) was 2.5. For the same molecule, the “Root DW (factor treated/check)” value ([2]; week 9, drench 10 mg per pot) was 1.1, the “Root FW (factor treated/check)” value ([2]; week 9, drench 10 mg per pot) was 0.9 and the “Shoot DW (factor treated/check)” value ([2]; week 9, drench 10 mg per pot) was 1.1. The “Shoot FW (factor treated/check)” value ([2]; week 9, drench 10 mg per pot) was 0.7, the “Size (factor treated/check)” value ([2]; week 9, drench 10 mg per pot) was 1.4 and the “Leaf No (factor treated/check)” value ([2]; week 10, drench 10 mg per pot) was 1.4. For the same molecule, the “Protein” value ([2]; week 10, drench 10 mg per pot) was 1.3, the “Root DW (factor treated/check)” value ([2]; week 10, drench 10 mg per pot) was 1.3 and the “Root FW (factor treated/check)” value ([2]; week 10, drench 10 mg per pot) was 1.1. For the same molecule, the “Shoot DW (factor treated/check)” value ([2]; week 10, drench 10 mg per pot) was 1.1, the “Shoot FW (factor treated/check)” value ([2]; week 10, drench 10 mg per pot) was 1.1 and the “Size (factor treated/check)” value ([2]; week 10, drench 10 mg per pot) was 1.4. For the same molecule, the “Emergence (plants per meter), more plants than untreated” value (Canola) was “about 20%”.

Source: patent US6753296B1, “Method for improving plant growth” (priority 2002, dated 2004)
